What was measured:
Experiment in all cases: relative viability (nuclei count vs DMSO), 5 days (fraction); higher = more cells survive
[1] = compound: CC1=CC=C(C=C1)C(=O)CN2C3=C(CCCC3)SC2=N [Pifithrin_alpha] + CCNC(=O)c1noc(-c2cc(C(C)C)c(O)cc2O)c1-c1ccc(CN2CCOCC2)cc1 [Luminespib] (partner 0.01 µM)
Outline: (§1)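 Relative viability divides the nuclei count in treated wells by that in vehicle wells. Lung cancer cell lines were seeded in 1536-well plates, dosed by pin tool the next day, and fixed and stained after 5 days in one step with final 0.05% Triton X-100, 1% formaldehyde and 1 ug/ml Hoechst. Dosing was a single drug or a fixed anchor-drug dose plus five library-drug doses (not always all listed) in √10 steps, and values are medians of duplicate plates imaged at 4×.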

[2] = compound: CC1=CC=C(C=C1)C(=O)CN2C3=C(CCCC3)SC2=N [Pifithrin_alpha] + Nc1nc2[nH]cc(CCc3ccc(C(=O)N[C@@H](CCC(=O)O)C(=O)O)cc3)c2c(=O)[nH]1 [Pemetrexed] (partner 0.2 µM)
Outline: as §1

[3] = compound: CNC(=O)c1ccccc1Sc1ccc2c(/C=C/c3ccccn3)n[nH]c2c1 [Axitinib] + COc1cc2c(Oc3ccc(NC(=O)C4(C(=O)Nc5ccc(F)cc5)CC4)cc3F)ccnc2cc1OCCCN1CCOCC1 [Foretinib] (partner 0.25 µM)
Outline: as §1

[4] = compound: Nc1nc(Nc2ccc3c(c2)CC[C@@H](N2CCCC2)CC3)nn1-c1cc2c(nn1)-c1ccccc1CCC2 [Bemcentinib] + COc1cccc2cc(-c3nc([C@H]4CC[C@H](C(=O)O)CC4)n4ncnc(N)c34)[nH]c12 [OSI-027] (partner 0.5 µM)
Outline: as §1

| Cell Line | relative viability ([1]; first compound 1 µM) | relative viability ([1]; first compound 3.162 µM) | relative viability ([1]; first compound 10 µM) | relative viability ([1]; first compound 31.62 µM) | relative viability ([1]; first compound 100 µM) | relative viability ([2]; first compound 1 µM) | relative viability ([2]; first compound 3.162 µM) | relative viability ([2]; first compound 10 µM) | relative viability ([2]; first compound 31.62 µM) | relative viability ([2]; first compound 100 µM) | relative viability ([3]; first compound 0.005 µM) | relative viability ([3]; first compound 0.01581 µM) | relative viability ([3]; first compound 0.05 µM) | relative viability ([3]; first compound 0.1581 µM) | relative viability ([3]; first compound 0.5 µM) | relative viability ([4]; first compound 0.04 µM) | relative viability ([4]; first compound 0.1265 µM) | relative viability ([4]; first compound 0.4 µM) | relative viability ([4]; first compound 1.265 µM) | relative viability ([4]; first compound 4 µM) |
| --- | --- | --- | --- | --- | --- | --- | --- | --- | --- | --- | --- | --- | --- | --- | --- | --- | --- | --- | --- | --- |
| NCI-H838 | 0.248 | 0.292 | 0.263 | 0.237 | 0.198 | 0.194 | 0.242 | 0.272 | 0.235 | 0.287 | 1.06 | 1.11 | 1.12 | 0.906 | 1.13 | 0.38 | 0.434 | 0.371 | 0.442 | 0.372 |
| NCI-H1755 | 0.5 | 0.601 | 0.562 | 0.315 | 0.272 | 0.417 | 0.445 | 0.381 | 0.342 | 0.446 | 0.946 | 0.931 | 0.788 | 0.888 | 0.935 | 0.79 | 0.711 | 0.758 | 0.793 | 0.732 |
| EMC-BAC-2 | 1.17 | 1.12 | 0.969 |  | 1.08 | 0.443 | 0.435 | 0.416 | 0.383 | 0.418 | 1.05 | 1.08 | 1.03 | 1.08 | 1.09 | 0.372 | 0.369 | 0.427 | 0.37 | 0.388 |
| EKVX | 0.885 |  | 0.826 | 0.726 | 0.769 | 0.514 | 0.352 | 0.37 | 0.266 | 0.316 | 0.861 | 0.786 | 0.349 | 0.778 | 0.824 | 0.57 | 0.669 | 0.753 | 0.793 | 0.824 |
| NCI-H647 | 0.356 | 0.26 | 0.157 | 0.103 | 0.177 | 0.166 | 0.164 | 0.197 | 0.156 | 0.162 | 1.26 | 1.16 | 1.03 | 1.23 | 1.56 | 0.696 | 0.799 | 0.637 | 0.666 | 0.649 |
| NCI-H358 | 0.462 | 0.478 | 0.26 | 0.247 | 0.324 | 0.17 | 0.192 | 0.158 | 0.149 | 0.145 | 0.701 | 0.738 | 0.859 | 0.695 | 0.925 | 0.799 | 0.952 | 0.837 | 0.99 | 0.939 |
| LU99A | 0.304 | 0.302 | 0.244 | 0.206 | 0.281 | 0.183 | 0.243 | 0.19 |  | 0.172 | 0.901 | 0.851 | 0.818 | 0.894 | 0.936 | 0.283 | 0.279 | 0.28 | 0.285 | 0.275 |
| NCI-H1563 | 0.489 | 0.549 | 0.47 | 0.467 | 0.539 | 0.54 | 0.813 | 0.817 | 0.769 | 0.749 | 0.934 | 0.918 | 0.884 | 0.847 | 0.938 | 0.783 | 0.812 | 0.819 | 0.766 | 0.757 |
| NCI-H1734 | 0.184 | 0.186 | 0.191 | 0.159 | 0.18 | 0.452 | 0.434 | 0.428 | 0.367 | 0.358 | 0.928 | 0.853 | 0.923 | 0.944 | 1.08 | 0.643 | 0.66 | 0.552 | 0.583 | 0.591 |
| HARA |  | 0.899 | 0.792 |  | 0.481 | 0.234 | 0.232 | 0.266 | 0.248 | 0.23 | 0.768 | 0.907 | 0.945 | 0.821 | 0.919 | 0.479 | 0.758 | 0.589 | 0.453 | 0.469 |
| NCI-H2228 | 0.145 | 0.15 | 0.178 | 0.149 | 0.124 | 0.406 | 0.416 | 0.335 | 0.252 | 0.298 | 0.877 | 0.95 | 0.974 | 0.842 | 0.943 | 0.186 | 0.599 | 0.745 | 0.575 | 0.775 |
| HCC-827 | 0.747 | 0.741 | 0.803 | 0.439 | 0.863 | 0.251 | 0.256 | 0.27 | 0.239 | 0.205 | 1.06 | 0.984 | 1.04 | 1.01 | 1.13 | 0.816 | 0.927 | 0.862 | 0.84 | 0.848 |
| EPLC-272H | 0.279 | 0.264 | 0.564 | 0.226 | 0.16 | 0.444 | 0.3 | 0.249 | 0.295 | 0.382 | 0.639 | 0.745 | 0.579 | 0.735 | 0.637 | 0.342 | 0.266 | 0.318 | 0.244 | 0.361 |
| SW 1573 | 0.245 | 0.214 | 0.188 |  | 0.175 |  | 1.03 | 0.964 | 0.593 | 0.808 | 0.743 | 0.915 | 1.26 | 0.811 | 0.989 | 0.609 | 0.731 | 0.677 | 0.589 | 0.661 |
| LXF-289 | 0.676 | 0.589 | 0.789 | 0.469 | 0.697 | 0.908 | 0.985 | 0.921 | 0.767 | 0.943 | 1.07 | 0.902 | 0.913 | 0.983 | 1.05 | 0.744 | 0.837 | 0.782 | 0.801 | 0.819 |
